Tests used:
ACHN-luc2 = assay: CellTiter-Glo anti-proliferation assay, ACHN-luc2; assay type: cell-based
Protocol: (§1) The anti-proliferation effect of 2 compounds (the compound of formula (I) and temozolomide) in 7 CNS metastasis cell lines (MOLT-4-luc, Nalm-6-luc, NCI-H460-luc, ACHN-luc2, PC-9-luc, H1975-luc, and KM12-luc) was evaluated.
(§2) The plating of cells and compound treatments are shown below in the plate map (Table 12). One plate was needed for the test of 2 compounds (the compound of formula (I) and temozolomide) in one cell line. The compound of formula (I) was tested from 10 μM, 3-fold serial dilution. Temozolomide was tested from 100 μM, 3-fold serial dilution.
(§3) All the cell lines were maintained in culture conditions at 37° C. in an atmosphere with 5% CO2 in air. The tumor cells were routinely subcultured. The cells growing in an exponential growth phase were harvested and counted for plating.
(§4) Cells were counted by haemocytometer with Trypan blue staining. Next, 135 μL of cell suspension were plated into the assay plates according to the plate map and 135 μL of assay medium into the blank wells. The plates were incubated at 37° C., 5% CO2, 95% air and 100% relative humidity overnight.
(§5) 4.4.4 Compound Plate (10×) Preparation and Compound Treatment • 10× concentrate compound plate preparation: Add 198 μL of assay medium into each well of the V-bottom plate; then transfer 2 μL of the stock compound solution of each concentration from the stock plate. Add 2 μL of DMSO into the Blank and Control wells. Pipette up and down to mix well. This V-plate is designated as the 10× concentrate compound plate. • For day 0 plate, add 15 μL of the DMSO-medium into the Control wells. The final DMSO concentration was 0.1%. Then directly proceed to cell viability assay. • For assay plate, add 15 μL of the compound-medium of each well from the 10× concentrate compound plate into the cells in 96-well assay plate according to the plate map. Add 15 μL of the DMSO-medium into the Blank and Control wells. The final DMSO concentration was 0.1%. • Return the assay plate into incubator and incubate for 6 days.
(§6) The procedures were performed according to the Promega CellTiter-Glo Luminescent Cell Viability Assay Kit manual (Promega-G7573). • The CellTiter-Glo buffer was thawed and equilibrated to room temperature prior to use. • CellTiter-Glo Substrate was equilibrated to room temperature prior to use. • The entire liquid volume of CellTiter-Glo Buffer was transferred into the amber bottle containing CellTiter-Glo Substrate to reconstitute the lyophilized enzyme/substrate mixture. This forms the CellTiter-Glo Reagent. • The contents were mixed by gently vortexing to obtain a homogeneous solution. • The plate was equilibrated and its contents to room temperature for approximately 30 minutes. 75 μL (equal to the half volume of culture medium present in each well) CellTiter-Glo • Reagent was added in each well. Plates were covered with aluminum foil to protect from light. • The contents were mixed for 2 minutes on an orbital shaker to induce cell lysis. • The plate was incubated at room temperature for 20 minutes to stabilize luminescent signal. • Record luminescence on the 2104 EnVision plate reader.
(§7) Inhibition rate (IR) of the tested compounds was determined by the following formula: IR (%)=(1−(RLU compound−RLU day0)/(RLU control−RLU day0))*100%. The inhibitions of different dose of compound were calculated in Excel file, and then were used to plot inhibition curves and evaluate related parameters, such as Min (%), Max (%) and GI50. The data were interpreted by GraphPad Prism.

22Rv1 tumors = assay: 22Rv1 prostate tumor model (Example 3); assay type: in vivo, male Balb/c nude mice; settings: for T/C / TGI: PG-D24
Protocol: The in vivo anti-tumor efficacy of the compound of formula (I) either alone or in combination with enzalutamide prostate tumor model on male Balb/c nude mice was evaluated. The cell line is derived from a xenograft that was serially propagated in mice after castration—induced regression and relapse of the parental, androgen-dependent CWR22 xenograft.
In the study, the compound of formula (I) was dosed orally (po) once daily (QD) and enzalutamide, when administered, was dosed orally once daily for 25 days, as shown in Table 8.
The 22Rv1 tumor cells were maintained in vitro in RPMI1640 medium supplemented with 10% heat inactivated fetal bovine serum at 37° C. in an atmosphere of 5% CO2 in air. The tumor cells were routinely subcultured twice weekly. The cells growing in an exponential growth phase were harvested and counted for tumor inoculation.
Each mouse was inoculated subcutaneously at the right flank with 22Rv1 tumor cells (5*10^6) with 50% Matrigel for tumor development. The treatments were started on day 7 after tumor inoculation when the average tumor volume reached 94 mm^3. A total of 48 mice were selected and assigned into 6 groups. The testing articles were administrated to the mice according to Table 8.
The major endpoint was to see if the tumor growth could be delayed or mice could be cured. Tumor size was measured twice weekly in two dimensions using a caliper, and the volume was expressed in mm^3 using the formula: V=0.5 a×b^2 where a and b are the long and short diameters of the tumor, respectively. The tumor sizes are then used for the calculation of T/C and TGI values.
The T/C value (in percent) is an indication of antitumor effectiveness; T and C are the mean volume of the treated and control groups, respectively, on a given day.
TGI was calculated for each group using the formula: TGI (%)=[1−(Ti−T0)/(Vi−V0)]×100; Ti is the average tumor volume of a treatment group on PG-Di, T0 is the average tumor volume of the treatment group on the day of treatment start, Vi is the average tumor volume of the vehicle control group on the same day with Ti, and V0 is the average tumor volume of the vehicle group on the day of treatment start.
All groups were taken down on PG-D24 and PG-D25 when the average tumor size of vehicle group reached 2305 mm^3.
Summary statistics, including mean and the standard error of the mean (SEM), are provided for the tumor volume of each group at each time point. For comparison among groups, a one-way ANOVA was performed. All the analysis were conducted using GraphPad Prism software. p<0.05 was considered to be statistically significant.

Nalm-6-luc = assay: CellTiter-Glo anti-proliferation assay, Nalm-6-luc; assay type: cell-based
Protocol: as §1, §2, §3, §4, §5, §6, §7

[1] = inhibition rate, 6 days, Compound (I) from 10 μM, temozolomide from 100 μM, 3-fold, 9 points

CC(C)N1CCOc2c(F)cc(-c3nc(Nc4ccc(C5CCN(C)CC5)cn4)ncc3F)cc21 [Compound (I), 5-fluoro-4-(8-fluoro-4-isopropyl-3,4-dihydro-2H-benzo[b][1,4]oxazin-6-yl)-N-(5-(1-methylpiperidin-4-yl)pyridin-2-yl)pyrimidin-2-amine]
GI50 (ACHN-luc2; ACHN-luc2, 144 h, 6 days incubation, read-out: Absolute GI50): 47 nM
Max (%) (ACHN-luc2; [1]): 102.9%
Min (%) (ACHN-luc2; [1]): 6.0%
T/C (22Rv1 tumors; 10 mg/kg QD): 61.13%
TGI (22Rv1 tumors; 10 mg/kg QD): 40.49%
T/C (22Rv1 tumors; Compound (I) 30 mg/kg QD): 28.34%
TGI (22Rv1 tumors; Compound (I) 30 mg/kg QD): 74.71%
Tumor volume (mean ± SEM) (22Rv1 tumors; Group 3, 10 mg/kg PO QD, day 0): 94 ± 5 mm^3
Tumor volume (mean ± SEM) (22Rv1 tumors; Group 3, 10 mg/kg PO QD, day 3): 154 ± 12 mm^3
Tumor volume (mean ± SEM) (22Rv1 tumors; Group 3, 10 mg/kg PO QD, day 7): 257 ± 28 mm^3
Tumor volume (mean ± SEM) (22Rv1 tumors; Group 3, 10 mg/kg PO QD, day 10): 378 ± 40 mm^3
Tumor volume (mean ± SEM) (22Rv1 tumors; Group 3, 10 mg/kg PO QD, day 14): 598 ± 58 mm^3
Tumor volume (mean ± SEM) (22Rv1 tumors; Group 3, 10 mg/kg PO QD, day 17): 825 ± 87 mm^3
Tumor volume (mean ± SEM) (22Rv1 tumors; Group 3, 10 mg/kg PO QD, day 21): 1152 ± 114 mm^3
Tumor volume (mean ± SEM) (22Rv1 tumors; Group 3, 10 mg/kg PO QD, day 24): 1409 ± 102 mm^3
Tumor volume (mean ± SEM) (22Rv1 tumors; Group 4, 30 mg/kg PO QD, day 0): 94 ± 4 mm^3
Tumor volume (mean ± SEM) (22Rv1 tumors; Group 4, 30 mg/kg PO QD, day 3): 131 ± 13 mm^3
Tumor volume (mean ± SEM) (22Rv1 tumors; Group 4, 30 mg/kg PO QD, day 7): 165 ± 25 mm^3
Tumor volume (mean ± SEM) (22Rv1 tumors; Group 4, 30 mg/kg PO QD, day 10): 188 ± 30 mm^3
Tumor volume (mean ± SEM) (22Rv1 tumors; Group 4, 30 mg/kg PO QD, day 14): 289 ± 40 mm^3
Tumor volume (mean ± SEM) (22Rv1 tumors; Group 4, 30 mg/kg PO QD, day 17): 398 ± 60 mm^3
Tumor volume (mean ± SEM) (22Rv1 tumors; Group 4, 30 mg/kg PO QD, day 21): 546 ± 67 mm^3
Tumor volume (mean ± SEM) (22Rv1 tumors; Group 4, 30 mg/kg PO QD, day 24): 653 ± 64 mm^3
GI50 (Nalm-6-luc; 144 h, 6 days incubation, read-out: Absolute GI50): 154 nM
Max (%) (Nalm-6-luc; [1]): 105.6%
Min (%) (Nalm-6-luc; [1]): −20.8%

From patent US20230000876A1, “TREATING CANCERS WITH A CYCLIN-DEPENDENT KINASE INHIBITOR” (Nuvation Bio Inc., priority 2021, published 2023)
